Results taken from patent US10974081B2, “Treatment and prevention of sleep disorders” (Purdue Pharma L.P., priority 2016, dated 2021).
Several values for one entry are separate records, joined by “and”; a condition that tells them apart may be missing. Equal values may be shown once.

Columns and labels:
[1] = tested on: rats; assay: EEG/EMG sleep-wake analysis, single administration compared to zolpidem; format: in vivo, rat
[2] = tested on: subjects with insomnia disorder; assay: Phase 1 crossover polysomnography (PSG) study in subjects with insomnia disorder; format: in vivo, human; details: 10 mg oral

## O=C(O)c1nc2ccccc2n([C@H]2C[C@H]3CCC[C@@H](C2)N3C2CC3CCCC(C3)C2)c1=O (stereo partly shown) [Compound (1D)]
[1]; 10 mg/kg oral (FIG. 13B)
  effect on percentage of time spent in REM sleep: no significant effects
[1]; 10 mg/kg oral, 1 hour blocks at 2, 5, and 8 hours after dosing (FIG. 13A)
  percentage of time spent in wakefulness versus vehicle: lower
[1]; 10 mg/kg oral, 3 hour blocks (FIGS. 14A-14C)
  percentage amounts of wakefulness, REM sleep, and NREM sleep: no significant changes
[1]; 10 mg/kg oral, at 2, 5, and 8 hours after dosing (FIG. 13C)
  percentage of time spent in NREM sleep versus vehicle: higher
[1]; 10 mg/kg oral, at 6 and 15 hours after dosing (FIG. 13A)
  percentage of time spent in wakefulness versus vehicle: significantly increased
[1]; 10 mg/kg oral, at 6 and 15 hours after dosing (FIG. 13C)
  percentage of time spent in NREM sleep versus vehicle: significantly decreased
[1]; 100 mg/kg oral (FIG. 15B, 16B)
  effect on percentage of time spent in REM sleep: no significant effects
[1]; 100 mg/kg oral, 3 hour blocks 0-3, 3-6, 6-9, and 15-18 hours (FIG. 16C)
  percentage amount of NREM sleep versus vehicle: significant decreases
[1]; 100 mg/kg oral, 3 hour blocks 0-3, 3-6, and 15-18 hours (FIG. 16A)
  percentage amount of wakefulness versus vehicle: significant increases
[1]; 100 mg/kg oral, at 3, 4, 5, 7, 17 and 18 hours after dosing (FIG. 15C)
  percentage of time spent in NREM sleep versus vehicle: significantly increased
[1]; 100 mg/kg oral, at 3, 5 and 17 hours after dosing (FIG. 15A)
  percentage of time spent in wakefulness versus vehicle: significantly decreased
[1]; single 10 mg/kg oral dose
  overall sleep effect: minor sleep-enhancing effects
[1]; single 100 mg/kg oral dose
  overall sleep effect: significant sleep-enhancing effects
[2]; Change from Baseline
  Latency to Persistent Sleep (LPS) LSM (STDE): −32.33 (4.580) Minutes
  Latency to Persistent Sleep (LPS) Maximum: 8.75 min
  Latency to Persistent Sleep (LPS) Mean (SD): −29.918 (23.3435) Minutes
  Latency to Persistent Sleep (LPS) Median: -27.250 min
  Latency to Persistent Sleep (LPS) Minimum: -87.75 min
  Total Sleep Time (TST) LSM (STDE): 69.44 (12.870) Minutes
  Total Sleep Time (TST) Maximum: 198.00 min
  Total Sleep Time (TST) Mean (SD): 69.955 (49.2950) Minutes
  Total Sleep Time (TST) Median: 73.750 min
  Total Sleep Time (TST) Minimum: -59.80 min
  Wake After Sleep Onset (WASO) LSM (STDE): −50.04 (5.990) Minutes
  Wake After Sleep Onset (WASO) Maximum: 29.50 min
  Wake After Sleep Onset (WASO) Mean (SD): −50.545 (42.1544) Minutes
  Wake After Sleep Onset (WASO) Median: -47.250 min
  Wake After Sleep Onset (WASO) Minimum: -185.50 min
[2]; Compound (1D) versus placebo
  Latency to Persistent Sleep (LPS) Drug Effect Difference (LSM (STDE)): −17.44 (6.292) Minutes
  Total Sleep Time (TST) Drug Effect Difference (LSM (STDE)): 56.69 (17.665) Minutes
  Wake After Sleep Onset (WASO) Drug Effect Difference (LSM (STDE)): −38.46 (8.222) Minutes
[2]; Table 4 summary
  Latency to Persistent Sleep LSM Change from Baseline (STDE): −32.3 (4.6) min.
  Latency to Persistent Sleep Treatment Period Mean (SD): 18.8 (15.6)) min.
[2]; Table 4 summary, versus placebo
  Latency to Persistent Sleep LSM Effect Difference (STDE): −17.4 (6.3) min.
[2]; Table 6 summary
  Wake After Sleep Onset LSM Change from Baseline (STDE): −50.0 (6.0) min.
  Wake After Sleep Onset Treatment Period Mean (SD): 26.1 (16.2) min.
[2]; Table 6 summary, versus placebo
  Wake After Sleep Onset LSM Effect Difference (STDE): −38.5 (8.2) min.
[2]; Table 8 summary
  Total Sleep Time LSM Change from Baseline (STDE): 69.4 (12.9) min.
  Total Sleep Time Treatment Period Mean (SD): 432.0 (35.1) min.
[2]; Table 8 summary, versus placebo
  Total Sleep Time LSM Effect Difference (STDE): 56.7 min. and 56.7 (17.7) min.
[2]; Treatment Period 1 Night 1
  Latency to Persistent Sleep (LPS) Maximum: 58.0 min
  Latency to Persistent Sleep (LPS) Mean (SD): 25.68 (15.691) Minutes
  Latency to Persistent Sleep (LPS) Median: 24.50 min
  Latency to Persistent Sleep (LPS) Minimum: 6.0 min
  Total Sleep Time (TST) Maximum: 469.0 min
  Total Sleep Time (TST) Mean (SD): 424.00 (32.530) Minutes
  Total Sleep Time (TST) Median: 419.50 min
  Total Sleep Time (TST) Minimum: 358.5 min
  Wake After Sleep Onset (WASO) Maximum: 111.5 min
  Wake After Sleep Onset (WASO) Mean (SD): 35.95 (29.815) Minutes
  Wake After Sleep Onset (WASO) Median: 29.50 min
  Wake After Sleep Onset (WASO) Minimum: 7.5 min
[2]; Treatment Period 1 Night 2
  Latency to Persistent Sleep (LPS) Maximum: 105.0 min
  Latency to Persistent Sleep (LPS) Mean (SD): 20.73 (29.755) Minutes
  Latency to Persistent Sleep (LPS) Median: 15.00 min
  Latency to Persistent Sleep (LPS) Minimum: 0.0 min
  Total Sleep Time (TST) Maximum: 459.0 min
  Total Sleep Time (TST) Mean (SD): 439.82 (19.572) Minutes
  Total Sleep Time (TST) Median: 443.00 min
  Total Sleep Time (TST) Minimum: 387.5 min
  Wake After Sleep Onset (WASO) Maximum: 52.0 min
  Wake After Sleep Onset (WASO) Mean (SD): 25.68 (12.515) Minutes
  Wake After Sleep Onset (WASO) Median: 25.50 min
  Wake After Sleep Onset (WASO) Minimum: 4.0 min
[2]; Treatment Period 2 Night 1
  Latency to Persistent Sleep (LPS) Maximum: 46.0 min
  Latency to Persistent Sleep (LPS) Mean (SD): 12.75 (14.425) Minutes
  Latency to Persistent Sleep (LPS) Median: 9.00 min
  Latency to Persistent Sleep (LPS) Minimum: 0.0 min
  Total Sleep Time (TST) Maximum: 458.5 min
  Total Sleep Time (TST) Mean (SD): 416.88 (101.558) Minutes
  Total Sleep Time (TST) Median: 453.00 min
  Total Sleep Time (TST) Minimum: 166.0 min
  Wake After Sleep Onset (WASO) Maximum: 22.5 min
  Wake After Sleep Onset (WASO) Mean (SD): 15.63 (4.299) Minutes
  Wake After Sleep Onset (WASO) Median: 15.75 min
  Wake After Sleep Onset (WASO) Minimum: 9.5 min
